Columns and labels:
Test in all cases: cells
Type in all cases: functional, cell-based, Homo sapiens
[1] = system: COLO-800; settings: Homo sapiens, COLO-800;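 further: growth inhibition of COLO-800 cells, read out with a cell viability assay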
Description: SANGER: Inhibition of human COLO-800 cell growth in a cell viability assay.

[2] = system: COR-L88; settings: Homo sapiens, COR-L88;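 further: growth inhibition of COR-L88 cells, read out with a cell viability assay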
Description: SANGER: Inhibition of human COR-L88 cell growth in a cell viability assay.

[3] = system: D-392MG; settings: Homo sapiens, D-392MG
[4] = system: DEL; settings: Homo sapiens, DEL;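 further: growth inhibition of the human DEL cell line, read out with a cell viability assay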
Description: SANGER: Inhibition of human DEL cell growth in a cell viability assay.

[5] = system: DOHH-2; settings: Homo sapiens, DOHH-2;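 further: growth inhibition of human DOHH-2 cells, read out with a cell viability assay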
Description: SANGER: Inhibition of human DOHH-2 cell growth in a cell viability assay.

[6] = system: ES5; settings: Homo sapiens, ES5;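 further: growth inhibition of human ES5 cells, read out by a cell viability assay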
Description: SANGER: Inhibition of human ES5 cell growth in a cell viability assay.

[7] = system: ES6; settings: Homo sapiens, ES6;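 further: growth inhibition of human ES6 cells, read out with a cell viability assay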
Description: SANGER: Inhibition of human ES6 cell growth in a cell viability assay.

[8] = system: ES7; settings: Homo sapiens, ES7;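 further: growth inhibition of cultured human ES7 cells, read out as cell viability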
Description: SANGER: Inhibition of human ES7 cell growth in a cell viability assay.

[9] = system: EW-13; settings: Homo sapiens, EW-13;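 further: growth inhibition of EW-13 cells, read out with a cell viability assay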
Description: SANGER: Inhibition of human EW-13 cell growth in a cell viability assay.

[10] = system: EOL1; settings: Homo sapiens, EOL1;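 further: growth inhibition of EoL-1 cells, read out by a cell viability assay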
Description: SANGER: Inhibition of human EoL-1-cell cell growth in a cell viability assay.

[11] = system: HC-1; settings: Homo sapiens, HC-1;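 further: growth inhibition of HC-1 cells measured by a cell viability assay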
Description: SANGER: Inhibition of human HC-1 cell growth in a cell viability assay.

[12] = system: HCC2218; settings: Homo sapiens, HCC2218;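 further: cell viability assay read-out, with IC50 given as the concentration that inhibits growth of the cell line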
Description: SANGER: Inhibition of human HCC2218 cell growth in a cell viability assay.

[13] = system: HDLM-2; settings: Homo sapiens, HDLM-2;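 further: cell viability assay measuring suppression of HDLM-2 proliferation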
Description: SANGER: Inhibition of human HDLM-2 cell growth in a cell viability assay.

[14] = system: HL-60; settings: Homo sapiens, HL-60;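 further: growth inhibition of human HL-60 cells, read out with a cell viability assay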
Description: SANGER: Inhibition of human HL-60 cell growth in a cell viability assay.

[15] = system: K562; settings: Homo sapiens, K562
Description: SANGER: Inhibition of human K-562 cell growth in a cell viability assay.

[16] = system: KS-1; settings: Homo sapiens, KS-1;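 further: growth inhibition of KS-1 cells, read out with a cell viability assay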
Description: SANGER: Inhibition of human KS-1 cell growth in a cell viability assay.

[17] = system: LAMA-84; settings: Homo sapiens, LAMA-84;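 further: growth inhibition of LAMA-84 cells, read out with a cell viability assay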
Description: SANGER: Inhibition of human LAMA-84 cell growth in a cell viability assay.

[18] = system: LB2518-MEL; settings: Homo sapiens, LB2518-MEL;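 further: growth inhibition of human LB2518-MEL cells, measured with a cell viability assay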
Description: SANGER: Inhibition of human LB2518-MEL cell growth in a cell viability assay.

[19] = system: LB831-BLC; settings: Homo sapiens, LB831-BLC;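 further: growth inhibition of LB831-BLC cells, read out with a cell viability assay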
Description: SANGER: Inhibition of human LB831-BLC cell growth in a cell viability assay.

[20] = system: Lu-65; settings: Homo sapiens, Lu-65;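 further: growth inhibition of Lu-65 cancer cells, read out by a cell viability assay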
Description: SANGER: Inhibition of human LU-65 cell growth in a cell viability assay.

[21] = system: LXF-289 cell line; settings: Homo sapiens, LXF-289
Description: SANGER: Inhibition of human LXF-289 cell growth in a cell viability assay.

[22] = system: MLMA; settings: Homo sapiens, MLMA;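 further: growth inhibition of MLMA cells (human), determined through a cell viability readout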
Description: SANGER: Inhibition of human MLMA cell growth in a cell viability assay.

[23] = system: MN-60; settings: Homo sapiens, MN-60;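 further: growth inhibition of the MN-60 cell line, determined with a cell viability assay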
Description: SANGER: Inhibition of human MN-60 cell growth in a cell viability assay.

[24] = system: MZ1-PC; settings: Homo sapiens, MZ1-PC;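 further: cell viability assay measuring growth inhibition of human MZ1-PC cells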
Description: SANGER: Inhibition of human MZ1-PC cell growth in a cell viability assay.

[25] = system: NB13; settings: Homo sapiens, NB13;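 further: cell viability readout measuring growth inhibition of human NB13 cells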
Description: SANGER: Inhibition of human NB13 cell growth in a cell viability assay.

[26] = system: NB17; settings: Homo sapiens, NB17;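 further: growth inhibition of NB17 cells, read out with a cell viability assay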
Description: SANGER: Inhibition of human NB17 cell growth in a cell viability assay.

[27] = system: NB6; settings: Homo sapiens, NB6;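 further: growth inhibition of NB6 cells, read out by a cell viability assay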
Description: SANGER: Inhibition of human NB6 cell growth in a cell viability assay.

[28] = system: NCI-H1092; settings: Homo sapiens, NCI-H1092;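 further: cell growth inhibition measured with a cell viability assay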
Description: SANGER: Inhibition of human NCI-H1092 cell growth in a cell viability assay.

[29] = system: NCI-H1395; settings: Homo sapiens, NCI-H1395;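 further: cell viability assay read-out quantifying reduced proliferation of human NCI-H1395 cells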
Description: SANGER: Inhibition of human NCI-H1395 cell growth in a cell viability assay.

[30] = system: NCI-H2126; settings: Homo sapiens, NCI-H2126;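 further: growth inhibition of the cancer cell line, determined with a cell viability readout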
Description: SANGER: Inhibition of human NCI-H2126 cell growth in a cell viability assay.

[31] = system: NKM-1; settings: Homo sapiens, NKM-1;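 further: growth inhibition of NKM-1 cells, read out with a cell viability assay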
Description: SANGER: Inhibition of human NKM-1 cell growth in a cell viability assay.

[32] = system: RKO; settings: Homo sapiens, RKO;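 further: growth inhibition of human RKO cells, read out with a cell viability assay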
Description: SANGER: Inhibition of human RKO cell growth in a cell viability assay.

[33] = system: SBC-1; settings: Homo sapiens, SBC-1;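 further: cell viability assay measuring growth inhibition of the SBC-1 cell line, IC50 being the concentration that halves growth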
Description: SANGER: Inhibition of human SBC-1 cell growth in a cell viability assay.

[34] = system: SCH; settings: Homo sapiens, SCH;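 further: growth inhibition of human SCH cells, read out in a cell viability assay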
Description: SANGER: Inhibition of human SCH cell growth in a cell viability assay.

[35] = system: SF-126; settings: Homo sapiens, SF-126;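 further: growth inhibition of human SF126 cells, read out with a cell viability assay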
Description: SANGER: Inhibition of human SF126 cell growth in a cell viability assay.

[36] = system: SJSA-1; settings: Homo sapiens, SJSA-1;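 further: growth inhibition of human SJSA-1 cells, read out through a cell viability measurement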
Description: SANGER: Inhibition of human SJSA-1 cell growth in a cell viability assay.

[37] = system: SK-N-DZ; settings: Homo sapiens, SK-N-DZ;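 further: growth inhibition of the cancer cell line, read out through a viability assay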
Description: SANGER: Inhibition of human SK-N-DZ cell growth in a cell viability assay.

[38] = system: SK-PN-DW; settings: Homo sapiens, SK-PN-DW;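 further: growth inhibition measured with a viability assay on these cells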
Description: SANGER: Inhibition of human SK-PN-DW cell growth in a cell viability assay.

[39] = system: SK-UT-1; settings: Homo sapiens, SK-UT-1;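 further: growth inhibition of SK-UT-1 cells, measured by a cell viability assay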
Description: SANGER: Inhibition of human SK-UT-1 cell growth in a cell viability assay.

[40] = system: 697; settings: Homo sapiens
Description: SANGER: Inhibition of human 697 cell growth in a cell viability assay.

[41] = system: A253 cell line; settings: Homo sapiens, A253;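 further: growth inhibition of A253 cells, read out with a cell viability assay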
Description: SANGER: Inhibition of human A253 cell growth in a cell viability assay.

[42] = system: A3-KAW; settings: Homo sapiens, A3-KAW;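 further: growth inhibition of human A3-KAW cells, read out with a cell viability assay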
Description: SANGER: Inhibition of human A3-KAW cell growth in a cell viability assay.

[43] = system: ATN-1; settings: Homo sapiens, ATN-1;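 further: growth inhibition of human ATN-1 cells, read out with a cell viability assay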
Description: SANGER: Inhibition of human ATN-1 cell growth in a cell viability assay.

[44] = system: TE-12; settings: Homo sapiens, TE-12;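 further: growth inhibition of TE-12 cells, read out by a cell viability assay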
Description: SANGER: Inhibition of human TE-12 cell growth in a cell viability assay.

[45] = system: TE-5; settings: Homo sapiens, TE-5;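 further: inhibition of cell growth, read out by a cell viability assay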
Description: SANGER: Inhibition of human TE-5 cell growth in a cell viability assay.

[46] = system: TE-8; settings: Homo sapiens, TE-8;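 further: growth inhibition of TE-8 cells, measured with a cell viability readout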
Description: SANGER: Inhibition of human TE-8 cell growth in a cell viability assay.

[47] = system: TGW; settings: Homo sapiens, TGW;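 further: growth inhibition of human TGW cells, read out with a cell viability assay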
Description: SANGER: Inhibition of human TGW cell growth in a cell viability assay.

[48] = system: U-266; settings: Homo sapiens, U-266
Description: SANGER: Inhibition of human U-266 cell growth in a cell viability assay.

[49] = system: HCE-4; settings: Homo sapiens, HCE-4;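 further: cell viability assay measuring inhibition of growth in the human HCE-4 cell line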
Description: SANGER: Inhibition of human HCE-4 cell growth in a cell viability assay.

## COc1cc(N2CCN(C)CC2)ccc1Nc1ncc2c(n1)N(C)c1ccccc1C(=O)N2C
[1]
  IC50: > 8000 nM
[2]
  IC50: > 8000 nM
[3]
  IC50: > 8000 nM
[4]
  IC50: > 8000 nM
[5]
  IC50: 2570 nM
[6]
  IC50: > 8000 nM
[7]
  IC50: > 8000 nM
[8]
  IC50: > 8000 nM
[9]
  IC50: > 8000 nM
[10]
  IC50: > 8000 nM
[11]
  IC50: > 8000 nM
[12]
  IC50: > 8000 nM
[13]
  IC50: > 8000 nM
[14]
  IC50: 5140 nM
[15]
  IC50: > 8000 nM
[16]
  IC50: 5380 nM
[17]
  IC50: > 8000 nM
[18]
  IC50: > 8000 nM
[19]
  IC50: > 8000 nM
[20]
  IC50: > 8000 nM
[21]
  IC50: > 8000 nM
[22]
  IC50: > 8000 nM
[23]
  IC50: > 8000 nM
[24]
  IC50: > 8000 nM
[25]
  IC50: > 8000 nM
[26]
  IC50: > 8000 nM
[27]
  IC50: > 8000 nM
[28]
  IC50: > 8000 nM
[29]
  IC50: > 8000 nM
[30]
  IC50: > 8000 nM
[31]
  IC50: > 8000 nM
[32]
  IC50: 4680 nM
[33]
  IC50: > 8000 nM
[34]
  IC50: > 8000 nM
[35]
  IC50: > 8000 nM
[36]
  IC50: > 8000 nM
[37]
  IC50: > 8000 nM
[38]
  IC50: > 8000 nM
[39]
  IC50: > 8000 nM
[40]
  IC50: 654 nM
[41]
  IC50: > 8000 nM
[42]
  IC50: 4280 nM
[43]
  IC50: > 8000 nM
[44]
  IC50: 5500 nM
[45]
  IC50: > 8000 nM
[46]
  IC50: > 8000 nM
[47]
  IC50: > 8000 nM
[48]
  IC50: > 8000 nM

## OCCCNc1cc(-c2ccnc(Nc3cccc(Cl)c3)n2)ccn1
[1]
  IC50: > 256 nM
[2]
  IC50: > 256 nM
[4]
  IC50: 25.8 nM
[5]
  IC50: 40.8 nM
[6]
  IC50: > 256 nM
[7]
  IC50: 8.78 nM
[8]
  IC50: > 256 nM
[9]
  IC50: > 256 nM
[10]
  IC50: > 256 nM
[11]
  IC50: 52.2 nM
[12]
  IC50: > 256 nM
[49]
  IC50: > 256 nM
[13]
  IC50: > 256 nM
[14]
  IC50: > 256 nM
[15]
  IC50: > 256 nM
[16]
  IC50: 14 nM
[17]
  IC50: 203 nM
[18]
  IC50: > 256 nM
[19]
  IC50: 32.5 nM
[20]
  IC50: > 256 nM
[21]
  IC50: 164 nM
[22]
  IC50: 57.4 nM
[23]
  IC50: 149 nM
[24]
  IC50: 42.7 nM
[25]
  IC50: 126 nM
[26]
  IC50: 88.7 nM
[27]
  IC50: > 256 nM
[28]
  IC50: 108 nM
[29]
  IC50: > 256 nM
[30]
  IC50: > 256 nM
[31]
  IC50: 79.1 nM
[32]
  IC50: 114 nM
[33]
  IC50: > 256 nM
[34]
  IC50: > 256 nM
[35]
  IC50: 134 nM
[36]
  IC50: 60.7 nM
[37]
  IC50: > 256 nM
[38]
  IC50: 90.2 nM
[39]
  IC50: 157 nM
[40]
  IC50: 19.7 nM
[41]
  IC50: 64.9 nM
[42]
  IC50: 19.9 nM
[43]
  IC50: 54.2 nM
[44]
  IC50: 48.5 nM
[45]
  IC50: 90.5 nM
[46]
  IC50: 23.8 nM
[47]
  IC50: 76.9 nM
[48]
  IC50: > 256 nM

## CC[C@H](CO)Nc1nc(NCc2ccccc2)c2ncn(C(C)C)c2n1 [SELICICLIB]
[1]
  IC50: > 16000 nM
[2]
  IC50: > 16000 nM
[3]
  IC50: > 16000 nM
[4]
  IC50: > 16000 nM
[5]
  IC50: > 16000 nM
[6]
  IC50: > 16000 nM
[7]
  IC50: > 16000 nM
[8]
  IC50: > 16000 nM
[9]
  IC50: > 16000 nM
[10]
  IC50: > 16000 nM
[11]
  IC50: > 16000 nM
[12]
  IC50: > 16000 nM
[13]
  IC50: > 16000 nM
[14]
  IC50: > 16000 nM
[15]
  IC50: > 16000 nM
[16]
  IC50: 9460 nM
[17]
  IC50: > 16000 nM
[18]
  IC50: > 16000 nM
[19]
  IC50: 11600 nM
[20]
  IC50: > 16000 nM
[21]
  IC50: > 16000 nM
[22]
  IC50: > 16000 nM
[23]
  IC50: > 16000 nM
[24]
  IC50: > 16000 nM
[25]
  IC50: > 16000 nM
[26]
  IC50: > 16000 nM
[27]
  IC50: > 16000 nM
[28]
  IC50: > 16000 nM
[29]
  IC50: > 16000 nM
[30]
  IC50: > 16000 nM
[31]
  IC50: > 16000 nM
[32]
  IC50: > 16000 nM
[33]
  IC50: > 16000 nM
[34]
  IC50: > 16000 nM
[35]
  IC50: > 16000 nM
[36]
  IC50: > 16000 nM
[37]
  IC50: > 16000 nM
[38]
  IC50: > 16000 nM
[39]
  IC50: 10300 nM
[40]
  IC50: 12600 nM
[41]
  IC50: > 16000 nM
[42]
  IC50: 5760 nM
[43]
  IC50: > 16000 nM
[44]
  IC50: > 16000 nM
[45]
  IC50: > 16000 nM
[46]
  IC50: > 16000 nM
[47]
  IC50: > 16000 nM
[48]
  IC50: > 16000 nM

## COc1cc2ncn(-c3cc(OCc4ccccc4C(F)(F)F)c(C(N)=O)s3)c2cc1OC [GW843682X]
[1]
  IC50: > 256 nM
[2]
  IC50: 78.4 nM
[4]
  IC50: 19.9 nM
[5]
  IC50: 60.8 nM
[6]
  IC50: > 256 nM
[7]
  IC50: 6.19 nM
[8]
  IC50: > 256 nM
[9]
  IC50: > 256 nM
[10]
  IC50: 42.3 nM
[11]
  IC50: 26.2 nM
[12]
  IC50: > 256 nM
[49]
  IC50: 13.9 nM
[13]
  IC50: 69.5 nM
[14]
  IC50: 25.2 nM
[15]
  IC50: 59.4 nM
[16]
  IC50: 26.6 nM
[17]
  IC50: 39.9 nM
[18]
  IC50: 107 nM
[19]
  IC50: 200 nM
[20]
  IC50: > 256 nM
[21]
  IC50: 16.2 nM
[22]
  IC50: 24.9 nM
[23]
  IC50: > 256 nM
[24]
  IC50: 22.2 nM
[25]
  IC50: 22 nM
[26]
  IC50: 41 nM
[27]
  IC50: 142 nM
[28]
  IC50: > 256 nM
[29]
  IC50: > 256 nM
[30]
  IC50: 67.9 nM
[31]
  IC50: 138 nM
[32]
  IC50: 17.2 nM
[33]
  IC50: > 256 nM
[34]
  IC50: > 256 nM
[35]
  IC50: 138 nM
[36]
  IC50: 32.7 nM
[37]
  IC50: 37.4 nM
[38]
  IC50: 38.7 nM
[39]
  IC50: 23.7 nM
[40]
  IC50: 9.86 nM
[41]
  IC50: 53.2 nM
[42]
  IC50: 51.7 nM
[43]
  IC50: 24.1 nM
[44]
  IC50: 27.3 nM
[45]
  IC50: 23.4 nM
[46]
  IC50: 5.89 nM
[47]
  IC50: 34.7 nM
[48]
  IC50: 69.8 nM

## N[C@@H](CSC(c1ccccc1)(c1ccccc1)c1ccccc1)C(=O)O [S-TRITYL-L-CYSTEINE]
[1]
  IC50: > 5120 nM
[2]
  IC50: > 5120 nM
[4]
  IC50: 1410 nM
[5]
  IC50: 867 nM
[6]
  IC50: > 5120 nM
[7]
  IC50: > 5120 nM
[8]
  IC50: > 5120 nM
[9]
  IC50: > 5120 nM
[10]
  IC50: 1190 nM
[11]
  IC50: 1050 nM
[12]
  IC50: > 5120 nM
[49]
  IC50: 469 nM
[13]
  IC50: 1500 nM
[14]
  IC50: > 5120 nM
[15]
  IC50: 1540 nM
[16]
  IC50: 842 nM
[17]
  IC50: 3160 nM
[18]
  IC50: 3710 nM
[19]
  IC50: > 5120 nM
[20]
  IC50: > 5120 nM
[21]
  IC50: 977 nM
[22]
  IC50: 4620 nM
[23]
  IC50: > 5120 nM
[24]
  IC50: 1630 nM
[25]
  IC50: 1990 nM
[26]
  IC50: 3070 nM
[27]
  IC50: 3910 nM
[28]
  IC50: > 5120 nM
[29]
  IC50: > 5120 nM
[30]
  IC50: 2110 nM
[31]
  IC50: > 5120 nM
[32]
  IC50: 677 nM
[33]
  IC50: > 5120 nM
[34]
  IC50: 2500 nM
[35]
  IC50: 3010 nM
[36]
  IC50: 750 nM
[37]
  IC50: 3140 nM
[38]
  IC50: 1350 nM
[39]
  IC50: 626 nM
[40]
  IC50: 328 nM
[41]
  IC50: 3710 nM
[42]
  IC50: 835 nM
[43]
  IC50: 859 nM
[44]
  IC50: > 5120 nM
[45]
  IC50: > 5120 nM
[46]
  IC50: 722 nM
[47]
  IC50: > 5120 nM
[48]
  IC50: 4800 nM
